Measured values taken from patent US6914045B2, “Glycopeptide antibiotics” (Wyeth Holdings Corporation, priority 2001, dated 2005).

Key:
Enterococcus sp. = experiment: in vitro antibacterial evaluation, MIC by broth dilution; type: cell-based; conditions: broth dilution, 18 hours at 35° C.
Summary of the method: (§1)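 Broth dilution per NCCLS standard M7-A2 in Muller-Hinton II […], with an inoculum of 5×10^5 CFU/mL and antibiotic spanning 64-0.06 μg/mL. The MIC is the lowest concentration that inhibits growth of the organism.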

Staphylococcus sp. = experiment: as above; type: cell-based; conditions: broth dilution, 18 hours at 35° C.
Summary of the method: as §1

Streptococcus sp. = experiment: as above; type: cell-based; conditions: broth dilution, 18 hours at 35° C.
Summary of the method: as §1

[1] = system: Staphylococcus aureus-SMITH (GC 4543); experiment: acute lethal infection in mice; type: in vivo; conditions: acute lethal infection, female CD-1 mice, intraperitoneal challenge, intravenous 30 min. after infection, 7 day survival
Summary of the method: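 Survival at 7 days, pooled from three independent tests, yields ED50 values. Treatment is intravenous, 30 min after ip infection of female CD-1 mice, using an inoculum lethal to untreated controls within 24-48 hr.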

[2] = anatomic pathology (histopathology of heart and kidney) in mice; type: in vivo; conditions: CD-1 mice, 20 mg/kg intravenously daily for 9 days, necropsy day 10, microscopic histopathology
Description: Samples of tissues from necropsied mice were formalin-fixed, paraffin-embedded, sectioned, stained with hematoxylin and eosin, and examined microscopically. Histopathologic findings were recorded. These findings were subjectively graded on a scale corresponding to slight, mild, moderate, marked and severe as compared to untreated controls.

Escherichia coli = experiment: in vitro antibacterial evaluation, MIC by broth dilution; type: cell-based; conditions: 18 hours at 35° C.

N=C1NCC(C(O)C2NC(=O)C(Cc3ccc(OC4OC(CO)C(OC5OC6COC7(OC6C(O)C5O)C5CC6CC(C5)CC7C6)C(O)C4O)cc3)NC(=O)C(Cc3ccccc3)NC(=O)CNC(=O)C(CO)NC(=O)C(C(O)C3CNC(=N)N3C3OC(CO)C(O)C(O)C3O)NC2=O)N1 (stereo not drawn) [Example 220]
0.19 mg/kg: median effective dose (ED50), Staphylococcus aureus-SMITH (GC 4543) [1]
0.25 µg/mL: MIC Staphylococcus haemolyticus (GC 4546) (Staphylococcus sp.; strain GC 4546) | MIC Coagulase Negative Staphylococcus (GC 4548) (Staphylococcus sp.; strain GC 4548) | MIC Coagulase Negative Staphylococcus (GC 4549) (Staphylococcus sp.; strain GC 4549)
2 µg/mL: MIC Enterococcus avium (GC 4558) (Enterococcus sp.) | MIC Enterococcus faecalis (ATCC 29212) (Enterococcus sp.) | MIC Enterococcus faecalis (GC 2691) (Enterococcus sp.) | MIC Enterococcus faecalis (GC 3059) (Enterococcus sp.) | MIC Enterococcus faecalis (GC 4552) (Enterococcus sp.) | MIC Enterococcus faecalis (GC 4554) (Enterococcus sp.) | MIC Enterococcus faecalis (ATCC 29212) (Enterococcus sp.; inoculum 5×10^5 CFU/mL, strain ATCC 29212) | MIC Enterococcus faecalis (GC 2691) (Enterococcus sp.; inoculum 5×10^5 CFU/mL, strain GC 2691) | MIC Enterococcus faecalis (GC 3059) (Enterococcus sp.; inoculum 5×10^5 CFU/mL, strain GC 3059) | MIC Enterococcus faecalis (GC 4552) (Enterococcus sp.; inoculum 5×10^5 CFU/mL, strain GC 4552) | MIC Enterococcus faecalis (GC 4554) (Enterococcus sp.; inoculum 5×10^5 CFU/mL, strain GC 4554) | MIC Enterococcus avium (GC 4558) (Enterococcus sp.; inoculum 5×10^5 CFU/mL, strain GC 4558)
0.5 µg/mL: MIC Staphylococcus aureus (ATCC 29213) (Staphylococcus sp.; strain ATCC 29213) | MIC Staphylococcus aureus (GC 4542) (Staphylococcus sp.; strain GC 4542) | MIC Staphylococcus aureus (GC 4545) (Staphylococcus sp.; strain GC 4545) | MIC Coagulase Negative Staphylococcus (GC 4547) (Staphylococcus sp.; strain GC 4547) | MIC Coagulase Negative Staphylococcus (GC 4551) (Staphylococcus sp.; strain GC 4551) | MIC Escherichia coli (GC 4560) (Escherichia coli)
<0.06 µg/mL: MIC Streptococcus agalactiae (GC 4564) (Streptococcus sp.) | MIC Streptococcus pneumoniae (ATCC 6301) (Streptococcus sp.) | MIC Streptococcus pneumoniae (GC 1894) (Streptococcus sp.) | MIC Streptococcus pneumoniae (GC 4565) (Streptococcus sp.) | MIC Streptococcus pyogenes (GC 4563) (Streptococcus sp.) | MIC Streptococcus pneumoniae (ATCC 6301) (Streptococcus sp.; inoculum 5×10^5 CFU/mL, strain ATCC 6301) | MIC Streptococcus pneumoniae (GC 1894) (Streptococcus sp.; inoculum 5×10^5 CFU/mL, strain GC 1894) | MIC Streptococcus pyogenes (GC 4563) (Streptococcus sp.; inoculum 5×10^5 CFU/mL, strain GC 4563) | MIC Streptococcus agalactiae (GC 4564) (Streptococcus sp.; inoculum 5×10^5 CFU/mL, strain GC 4564) | MIC Streptococcus pneumoniae (GC 4565) (Streptococcus sp.; inoculum 5×10^5 CFU/mL, strain GC 4565)
+++: Anatomical Pathology (Day 10), Kidney [2]
0: Anatomical Pathology (Day 10), Heart [2]
16 µg/mL: MIC Escherichia coli (GC 4559) (Escherichia coli)
1 µg/mL: MIC Enterococcus faecalis (GC 2242) (Enterococcus sp.) | MIC Enterococcus faecalis (GC 4553) (Enterococcus sp.) | MIC Enterococcus faecalis (GC 6189) (Enterococcus sp.) | MIC Enterococcus faecium (GC 2243) (Enterococcus sp.) | MIC Enterococcus faecium (GC 4556) (Enterococcus sp.) | MIC Enterococcus faecium (GC 4557) (Enterococcus sp.) | MIC Enterococcus faecalis (GC 2242) (Enterococcus sp.; inoculum 5×10^5 CFU/mL, strain GC 2242) | MIC Enterococcus faecium (GC 2243) (Enterococcus sp.; inoculum 5×10^5 CFU/mL, strain GC 2243) | MIC Enterococcus faecalis (GC 4553) (Enterococcus sp.; inoculum 5×10^5 CFU/mL, strain GC 4553) | MIC Enterococcus faecium (GC 4556) (Enterococcus sp.; inoculum 5×10^5 CFU/mL, strain GC 4556) | MIC Enterococcus faecium (GC 4557) (Enterococcus sp.; inoculum 5×10^5 CFU/mL, strain GC 4557) | MIC Enterococcus faecalis (GC 6189) (Enterococcus sp.; inoculum 5×10^5 CFU/mL, strain GC 6189) | MIC Staphylococcus aureus (GC 1131) (Staphylococcus sp.; strain GC 1131) | MIC Staphylococcus aureus (GC 3051) (Staphylococcus sp.; strain GC 3051) | MIC Staphylococcus aureus (GC 3053) (Staphylococcus sp.; strain GC 3053) | MIC Staphylococcus aureus (GC 4541) (Staphylococcus sp.; strain GC 4541) | MIC Staphylococcus aureus-SMITH (GC 4543) (Staphylococcus sp.; strain GC 4543) | MIC Staphylococcus aureus (GC 4544) (Staphylococcus sp.; strain GC 4544)
32 µg/mL: MIC Escherichia coli (ATCC 25922) (Escherichia coli)
